Test results from patent publication US20150328198A1, “METHODS OF TREATING METHICILLIN-RESISTANT STAPHYLOCOCCUS AUREUS (MRSA) USING PPAR-GAMMA AGONISTS” (priority 2014, published 2015).

Tested on: MRSA
Experiment: murine MRSA skin and soft tissue infection (SSTI) model
Type: in vivo, mice
Source text: Peroxisome Proliferator Activator Receptor-γ (PPAR-γ) is a nuclear receptor that inhibits inflammation and redirects macrophages towards an M2 phenotype by driving Arg-1, Scd-1, SSAT and fatty acid synthesis gene expression. PPAR-γ is therefore involved in the development of adipocytes as well as M2-MΦs.

| SMILES | number of viable bacteria in wounds/abscesses (day 12) | resolution of MRSA SSTIs (mouse, in vivo) | reduction of average time to healing (mouse, in vivo) | beneficial effects of treatment in PPAR-γ-/- mice (mice lacking myeloid PPAR-γ) |
| --- | --- | --- | --- | --- |
| O=C(Nc1ccccc1)c1cc([N+](=O)[O-])ccc1Cl [GW9662] | greatly increased | non-resolving | – | – |
| CCc1ccc(CCOc2ccc(CC3SC(=O)NC3=O)cc2)nc1 (centres unmarked) [Pioglitazone] | – | – | ~5 days | – |
| CN(CCOc1ccc(CC2SC(=O)NC2=O)cc1)c1ccccn1 (centres unmarked) [Rosiglitazone] | – | – | ~5 days | no effect |
